How the values were obtained:
[1] = test system: Haemonchus contortus; assay: Anti-helmintic activity against fourth stage of Haemonchus contortus larvae assessed as reduction in development of L4 stage incubated for 72 hrs followed by reincubation in humidified environment for 4 days; assay type: functional, organism-based
[2] = Cytotoxicity against human MCF-10A cells assessed as inhibition of cell viability at 50 uM measured after 48 hrs by DAPI staining based analysis; details: read-out: INH
[3] = test system: Haemonchus contortus; assay: Anti-helmintic activity against third-stage Haemonchus contortus larvae assessed as inhibition of xL3 motility measured after 72 hrs; assay type: functional, organism-based
[4] = test system: MCF-10A; assay: Cytotoxicity against human MCF-10A cells assessed as inhibition of cell viability measured after 48 hrs by DAPI staining based analysis
[5] = Haemonchus contortus, 72 h, read-out: IC50

SMILES | IC50 [1] [µM] | cytotoxicity at 48 h, 50 µM [2] [%] | IC50 [3, 5] [µM] | IC50 [4] [µM] | IC50 [3]
O=C(Nc1ccc(Cl)cc1)N1CCC[C@H]1c1nc(-c2cccc(Cl)c2)no1 | 7.6 | 17 | 3 | > 50 | 
C[C@](C#N)(COc1cc(C#N)ccc1C(F)(F)F)NC(=O)c1ccc(SC(F)(F)F)cc1 [MONEPANTEL] | 0.075 | 99 | 0.16 | 26.9 | 
O=C(Nc1ccc(Cl)cc1)N1CCC[C@@H]1c1nc(-c2ccccc2)no1 | > 100 |  | > 100 |  | 
O=C(Nc1ccc(Br)cc1)N1CCC[C@H]1c1nc(-c2ccccc2)no1 | 12 | 20 | 1.8 | > 50 | 
O=C(Nc1ccc(Cl)cc1)N1CCC[C@H]1c1nc(-c2ccccc2O)no1 | > 100 |  | > 100 |  | 
O=C(Nc1ccc(Cl)cc1)N1CCC[C@H]1c1nc(-c2ccc(O)cc2)no1 | > 100 |  | > 100 |  | 
CC(=O)c1ccc(NC(=O)N2CCC[C@H]2c2nc(-c3ccccc3)no2)cc1 | > 100 |  | > 100 |  | 
O=C(Nc1ccc(Cl)cc1)N1CCC[C@H]1c1nc(-c2cccc(F)c2)no1 | 18 | 22 | 8.1 | > 50 | 
O=C(Nc1cccc(F)c1)N1CCC[C@H]1c1nc(-c2ccccc2)no1 | > 100 |  | > 100 |  | 
O=C(Nc1ccncc1)N1CCC[C@H]1c1nc(-c2ccccc2)no1 | > 100 |  | > 100 |  | 
O=C(Nc1ccc(I)cc1)N1CCC[C@H]1c1nc(-c2ccccc2)no1 | 3.2 | 8 | 5.6 | > 50 | 
COc1cccc(-c2noc([C@@H]3CCCN3C(=O)Nc3ccc(Cl)cc3)n2)c1 | > 100 |  | > 100 |  | 
O=C(Nc1ccc(O)cc1)N1CCC[C@H]1c1nc(-c2ccccc2)no1 | > 100 |  | > 100 |  | 
O=C(Nc1cccnc1)N1CCC[C@H]1c1nc(-c2ccccc2)no1 | > 100 |  | > 100 |  | 
N#Cc1ccc(NC(=O)N2CCC[C@H]2c2nc(-c3ccccc3)no2)cc1 | > 100 | 27 | 18 | > 50 | 
O=C(Nc1cccc(Br)c1)N1CCC[C@H]1c1nc(-c2ccccc2)no1 | > 100 |  | > 100 |  | 
Cc1ccccc1-c1noc([C@@H]2CCCN2C(=O)Nc2ccc(Cl)cc2)n1 | 50 | 36 | 0.78 | > 50 | 
CC(=O)c1ccccc1NC(=O)N1CCC[C@H]1c1nc(-c2ccccc2)no1 | > 100 |  | > 100 |  | 
CC(=O)c1cccc(NC(=O)N2CCC[C@H]2c2nc(-c3ccccc3)no2)c1 | > 100 |  | > 100 |  | 
O=C(Nc1ccc(Cl)cc1)N1CCC[C@H]1c1nc(-c2ccccc2F)no1 | > 100 | 30 |  | > 50 | Active
O=C(Nc1ccccc1Br)N1CCC[C@H]1c1nc(-c2ccccc2)no1 | > 100 |  | > 100 |  | 
COc1ccccc1-c1noc([C@@H]2CCCN2C(=O)Nc2ccc(Cl)cc2)n1 | > 100 |  | > 100 |  | 
N#Cc1ccccc1NC(=O)N1CCC[C@H]1c1nc(-c2ccccc2)no1 | > 100 |  | > 100 |  | 
CS(=O)(=O)c1ccc(NC(=O)N2CCC[C@H]2c2nc(-c3ccccc3)no2)cc1 | > 100 |  | > 100 |  | 
COc1ccc(NC(=O)N2CCC[C@H]2c2nc(-c3ccccc3)no2)cc1 | > 100 |  | > 100 |  | 
O=C(Nc1ccccc1Cl)N1CCC[C@H]1c1nc(-c2ccccc2)no1 | > 100 |  | > 100 |  | 
CN(C)S(=O)(=O)c1ccc(NC(=O)N2CCC[C@H]2c2nc(-c3ccccc3)no2)cc1 | > 100 |  | > 100 |  | 
N#Cc1ccc(-c2noc([C@@H]3CCCN3C(=O)Nc3ccc(Cl)cc3)n2)cc1 | > 100 | 11 | > 100 | > 50 | 
O=C(Nc1ccc([N+](=O)[O-])cc1)N1CCC[C@H]1c1nc(-c2ccccc2)no1 | 50 | 22 | 50 | > 50 | 
Cc1cccc(NC(=O)N2CCC[C@H]2c2nc(-c3ccccc3)no2)c1 | > 100 |  | > 100 |  | 
